Laboratory results as given in the supplement of paper PMC10307832.

What was measured:
Assay in all cases: relative viability (nuclei count vs DMSO), 5 days (fraction); higher = more cells survive
MK-2206 + Vorinostat = compound: NC1(c2ccc(-c3nc4ccn5c(=O)[nH]nc5c4cc3-c3ccccc3)cc2)CCC1 [MK-2206] + O=C(CCCCCCC(=O)Nc1ccccc1)NO [Vorinostat] (partner 1 µM)
Outline: (§1)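 Five library-drug doses in √10 steps were combined with a fixed anchor-drug dose, or a single drug was given alone, by pin tool to lung cancer cell lines in 1536-well plates the day after seeding. Nuclei were stained and counted after 5 days. Relative viability is the nuclei count in treated wells over that in vehicle wells, taken as the median of duplicate plates.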

Pictilisib + Vorinostat = compound: CS(=O)(=O)N1CCN(Cc2cc3nc(-c4cccc5[nH]ncc45)nc(N4CCOCC4)c3s2)CC1 [Pictilisib] + O=C(CCCCCCC(=O)Nc1ccccc1)NO [Vorinostat] (partner 1 µM)
Outline: as §1

Pictilisib + Tozasertib = compound: CS(=O)(=O)N1CCN(Cc2cc3nc(-c4cccc5[nH]ncc45)nc(N4CCOCC4)c3s2)CC1 [Pictilisib] + Cc1cc(Nc2cc(N3CCN(C)CC3)nc(Sc3ccc(NC(=O)C4CC4)cc3)n2)n[nH]1 [Tozasertib] (partner 0.1 µM)
Outline: as §1

MK-2206 + Bortezomib = compound: NC1(c2ccc(-c3nc4ccn5c(=O)[nH]nc5c4cc3-c3ccccc3)cc2)CCC1 [MK-2206] + CC(C)C[C@H](NC(=O)[C@H](Cc1ccccc1)NC(=O)c1cnccn1)B(O)O [Bortezomib] (partner 0.002 µM)
Outline: as §1

MK-2206 + Linsitinib = compound: NC1(c2ccc(-c3nc4ccn5c(=O)[nH]nc5c4cc3-c3ccccc3)cc2)CCC1 [MK-2206] + C[C@]1(O)C[C@@H](c2nc(-c3ccc4ccc(-c5ccccc5)nc4c3)c3c(N)nccn32)C1 [Linsitinib] (partner 1 µM)
Outline: as §1

Cell Line	relative viability (MK-2206 + Vorinostat; first compound 0.01 µM)	relative viability (MK-2206 + Vorinostat; first compound 0.03162 µM)	relative viability (MK-2206 + Vorinostat; first compound 0.3162 µM)	relative viability (MK-2206 + Vorinostat; first compound 1 µM)	relative viability (Pictilisib + Vorinostat; first compound 0.02 µM)	relative viability (Pictilisib + Vorinostat; first compound 0.06325 µM)	relative viability (Pictilisib + Vorinostat; first compound 0.6325 µM)	relative viability (Pictilisib + Vorinostat; first compound 2 µM)	relative viability (Pictilisib + Tozasertib; first compound 0.02 µM)	relative viability (Pictilisib + Tozasertib; first compound 0.06325 µM)	relative viability (Pictilisib + Tozasertib; first compound 0.6325 µM)	relative viability (Pictilisib + Tozasertib; first compound 2 µM)	relative viability (MK-2206 + Bortezomib; first compound 0.01 µM)	relative viability (MK-2206 + Bortezomib; first compound 0.03162 µM)	relative viability (MK-2206 + Bortezomib; first compound 0.3162 µM)	relative viability (MK-2206 + Bortezomib; first compound 1 µM)	relative viability (MK-2206 + Linsitinib; first compound 0.01 µM)	relative viability (MK-2206 + Linsitinib; first compound 0.03162 µM)	relative viability (MK-2206 + Linsitinib; first compound 0.3162 µM)	relative viability (MK-2206 + Linsitinib; first compound 1 µM)
201T	0.963	1.06	0.988	1.09	0.859	0.966	0.869	0.622	0.99	0.963	0.82	0.556	1.06	1.13	1.17	1.16	1.05	0.941	1.03	1.03
A549																	0.657	0.651	0.574	0.512
A-427	0.871	0.877	0.916	0.869	0.84	0.874	0.95	0.853	0.202	0.187	0.19	0.145	0.912	1	1.02	0.931	1.13	1.09	1.14	1.17
ABC-1	0.78	1.04	1.08	1.11	0.83	1.07	0.859	0.691	0.187	0.135	0.158	0.168	0.302	0.219	0.43	0.352	0.799	0.742	0.881	0.868
BEN	0.54	0.582	0.514	0.555	0.583	0.615	0.609	0.441	0.377	0.425	0.448	0.409	0.775	0.821	1	0.528	0.924	1.01	1.04	1.03
CAL-12T	0.672	0.8	0.748	0.768	0.755	0.664	0.629	0.283	0.296	0.314	0.277	0.17	0.971	0.928	0.947	0.963	0.742	0.877	0.761	0.739
COR-L23	0.462	0.52	0.426	0.408	0.491	0.407	0.386	0.286	0.245	0.185	0.139	0.136	0.913	1	1.18	0.989	0.909	0.996	1	0.693
COR-L 105	0.822	0.676	0.769	0.796	0.91	0.874	0.594	0.606	0.33	0.303	0.344	0.292	0.766	0.725	0.997	0.843	0.941	0.895	0.67	0.629
Calu-6													0.991	1.08	1.01	1.15		0.961	0.963	0.926
ChaGo-K-1	0.754	0.856	0.763	0.702	0.797	0.773	0.64	0.609	0.227	0.21	0.161	0.17	1.09	0.993	0.924	0.763				
EBC-1													0.603	0.47	0.345	0.197	0.795	0.951	0.681	0.557
EKVX	0.681	0.684	0.648	0.693	0.734	0.538	0.56	0.254	0.369	0.324	0.317	0.215	0.996	1.21	0.705	0.649	0.96	1.09	0.846	0.801
EMC-BAC-2	0.468	0.442	0.442	0.392	0.88	0.615	0.337	0.286	0.304	0.31	0.297	0.242	1.08	1.04	1.06	0.865	0.811	0.821	0.769	0.748
EPLC-272H	0.513	0.401	0.482	0.435	0.477	0.403	0.449	0.23	0.26	0.231	0.206	0.179	1.05	1.06		1.01	1.17	1.18		1.15
H3255	0.779	0.803	0.724	0.617	0.813	0.779	0.788	0.414	0.601	0.474	0.648	0.486	0.718	0.977	0.718	0.564	0.975	0.924	0.847	0.726
HARA	0.391	0.539	0.455	0.59	0.712	0.35	0.299	0.239	0.127	0.107	0.0682	0.0525	1.16	1.31	1.08	0.916	0.907	0.919	0.906	0.922
HCC-15	0.821	0.828	0.78	0.854	0.841	0.818	0.707	0.535	0.37	0.379	0.275	0.153	0.98	1.07	1	0.811	0.92	0.897	0.846	0.852
HCC-44	1.07	1.1	1.12	1.07	1.19	1.14	1.17	0.783	0.952	0.922	0.629	0.279	0.921	0.86	0.877	0.874	0.662	0.652	0.556	0.445
HCC-78	0.439	0.504	0.408	0.398	0.393	0.384	0.322	0.257	0.427	0.46	0.309	0.281	0.415	0.606	0.475	0.395	0.505	0.576	0.388	0.316
HCC-366	0.341	0.448	0.26	0.254	0.45	0.368	0.226	0.118	0.19	0.0882	0.0364	0.0156	1.01	0.982	1.04	1.02	0.637	0.675	0.364	0.384

Cell Line	relative viability (MK-2206 + Vorinostat; first compound 0.01 µM)	relative viability (MK-2206 + Vorinostat; first compound 0.03162 µM)	relative viability (MK-2206 + Vorinostat; first compound 0.3162 µM)	relative viability (MK-2206 + Vorinostat; first compound 1 µM)	relative viability (Pictilisib + Vorinostat; first compound 0.02 µM)	relative viability (Pictilisib + Vorinostat; first compound 0.06325 µM)	relative viability (Pictilisib + Vorinostat; first compound 0.6325 µM)	relative viability (Pictilisib + Vorinostat; first compound 2 µM)	relative viability (Pictilisib + Tozasertib; first compound 0.02 µM)	relative viability (Pictilisib + Tozasertib; first compound 0.06325 µM)	relative viability (Pictilisib + Tozasertib; first compound 0.6325 µM)	relative viability (Pictilisib + Tozasertib; first compound 2 µM)	relative viability (MK-2206 + Bortezomib; first compound 0.01 µM)	relative viability (MK-2206 + Bortezomib; first compound 0.03162 µM)	relative viability (MK-2206 + Bortezomib; first compound 0.3162 µM)	relative viability (MK-2206 + Bortezomib; first compound 1 µM)	relative viability (MK-2206 + Linsitinib; first compound 0.01 µM)	relative viability (MK-2206 + Linsitinib; first compound 0.03162 µM)	relative viability (MK-2206 + Linsitinib; first compound 0.3162 µM)	relative viability (MK-2206 + Linsitinib; first compound 1 µM)
HCC-827	0.791	0.847	0.816	0.323	0.827	0.811	0.829	0.559	0.436	0.441	0.312	0.2	0.98	1.06	1.09	1.03	1.01	0.989	0.982	0.914
HOP-62	0.491	0.632	0.492	0.656	0.676	0.573	0.566	0.348	0.319	0.415	0.369	0.304	0.726	0.759	0.429	0.743	0.783	0.757	1.01	0.998
IA-LM	0.935	1.11	1.02	1.02	0.917	0.97	0.881	0.373					0.868	0.928	0.887	0.699	0.55	0.632	0.597	0.409
LK-2	0.26	0.287	0.334	0.221	0.292	0.291	0.214	0.139	0.209	0.173	0.154	0.158					0.511	0.641	0.627	0.699
NCI-H358	0.659	0.697	0.646	0.729	0.816	0.693	0.603	0.264	0.0959	0.104	0.103	0.0838					0.79	0.707	0.542	0.602
NCI-H522	1.07	1.02	0.828	0.836	0.857	0.866	0.757	0.608	0.52	0.542	0.444	0.397								
NCI-H1299													1.04	1.02	1.09	1	0.947	1.08	0.977	0.965
NCI-H1395	0.713	0.667	0.574	0.576	1.08	0.727	0.498	0.369	0.715	0.722	0.773	0.473					1.22	1.03	0.915	1.23
NCI-H1563													0.869	0.947	0.636	0.768	1.12	1.22	0.797	0.742
NCI-H1623									0.378	0.364	0.381	0.272								
NCI-H1648	0.475	0.422	0.445	0.432	0.393	0.378	0.239	0.19	0.377	0.36	0.455	0.246								
NCI-H1650	0.532	0.612	0.656	0.519	0.566	0.666	0.819	0.358	0.467	0.401	0.348	0.18	0.196	0.195	0.207	0.2				
NCI-H1703													0.338	0.28	0.316	0.223	1.01	1.03	0.544	0.748
NCI-H1792													0.985	1	0.979	0.923	0.573	0.596	0.549	0.636
NCI-H1793	0.818	0.773	0.636	0.478	0.712	0.724	0.379	0.243	0.288	0.29	0.189	0.097					0.81	0.886	0.641	0.675
NCI-H1944	0.536	0.547	0.556	0.433	0.61	0.494	0.375	0.201	0.254	0.234	0.195	0.148					1.27	1.17	1.15	1.17
NCI-H2170	0.829	0.847	0.769	0.699	0.856	0.822	0.611	0.304	0.875	0.823	0.61	0.391								
NCI-H2342	0.841	0.802	0.821	0.733	0.672	0.814	0.695	0.529	0.46	0.474	0.409	0.276								
SK-MES-1	1.02	1.15	1.02	1.05	1.11	1.12	0.856	0.511	1	0.982	0.822	0.649					1.03	1.1	1.05	1.06
SW 900	0.527		0.554	0.299	0.695	0.579	0.382	0.231	0.651	0.63	0.562	0.334								
